In patent US10414718B2, “Dezocine analogue” (priority 2016, dated 2019):
Structures can show the parent of a compound that is named as a salt.

Experiments:
δ opioid receptor = biological target: T1, δ opioid receptor (Homo sapiens, UniProt P41143); experiment: FLIPR intracellular calcium signal test, HEK293-δ cells; format: cell-based; conditions: for EC50: EC50 (activation) test, read-out: Delt receptor EC50; for IC50: IC50 (inhibition) test against EC80 of positive agonist, read-out: Delt receptor IC50
T1 construct: expressed in transfected cells
T1 sequence (P41143 whole entry): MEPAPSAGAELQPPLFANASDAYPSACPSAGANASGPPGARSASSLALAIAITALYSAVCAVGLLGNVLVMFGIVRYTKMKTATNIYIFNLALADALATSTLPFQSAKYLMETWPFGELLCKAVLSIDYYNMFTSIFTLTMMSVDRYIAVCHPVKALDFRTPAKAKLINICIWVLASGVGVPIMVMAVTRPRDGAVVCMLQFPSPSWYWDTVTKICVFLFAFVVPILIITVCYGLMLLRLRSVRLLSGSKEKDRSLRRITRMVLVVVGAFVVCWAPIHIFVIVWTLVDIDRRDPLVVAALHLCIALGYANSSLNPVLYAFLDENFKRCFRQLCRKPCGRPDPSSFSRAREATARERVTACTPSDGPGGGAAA
Protocol: (§1) Fluorescence imaging plate reader FLIPR was used to detect changes of intracellular calcium signals. EC50 and IC50 values of the compounds were used as indicators to evaluate the activation or inhibition of the compounds on μ, κ, and δ opioid receptors.
(§2) Cell lines: HEK293-μ, HEK293-κ and HEK293-δ, stable-transfected cell lines HEK293-μ, HEK293-κ and HEK293-δ; Cell culture media (DMEM, Invitrogen #11965118, 10% fetal bovine serum Invitrogen #10099141, Geneticin Selective Antibiotic (G418) 300 μg/mL, Invitrogen #10131027, Blasticidin-S HCL 2 ug/mL Invitrogen #A1113902)
(§3) 1. Cell Seeding (HEK293-μ, HEK293-κ and HEK293-δ Cells)
(§4) 1) Preheating medium, pancreatic enzyme, and DPBS in a 37° C. water bath. Aspirating the culture medium from the cell culture flask and washing it with 10 mL DPBS;
(§5) 2) Adding the preheated pancreatic enzyme solution to the cell culture flask, rotating the flask slightly to make the pancreatic enzymes evenly cover the cell surface of the flask, and then putting it into a 37° C., 5% CO2 incubator to digest for 1-2 minutes;
(§6) 3) Suspending the cells with 10-15 mL culture medium in each T150 cm^2 cell culture flask, centrifugating at 800 rpm for 5 minutes, and resuspending the cells with 10 mL culture medium, aspirating 1 mL cell resuspension to be counted with Vi-cell;
(§7) 4) Diluting HEK293-μ, HEK293-κ and HEK293-δ cells to 5×10^5/mL with culture medium, use multichannel pipette to add diluted cells into 384 plate (Greiner #781946) (50 μL/well, 25000 cells/well for HEK293-μ, HEK293-κ and HEK293-δ cells). Placing the cell plate in a 37° C., 5% CO2 incubator overnight.
(§8) 2. Adding Compound Samples:
(§9) 1) Diluting the compound to 20 mM with DMSO, 3 fold diluted, 8 gradients, double reduplicative wells, and adding it to the compound plate using an Echo ultrasonic liquid handler device (Echo liquid handler).
(§10) 1) Washing off the cell culture medium in 384 plate with vacuum pump, adding 20 μL Fluo-4 Direct fluorescent dye, then incubating in a 37° C., 5% CO2 incubator for 50 minutes, followed by equilibrating at room temperature for 10 minutes.
(§11) 2) EC50 test: Adding 20 uL HBSS buffer (containing 20 mM HEPES) to the compound plate, mixing well and centrifugating. Placing the cell plate and compound plate into FLIPR and reading the fluorescence value.
(§12) Calculating the EC80 value with the EC50 value of the positive agonist, preparing 4× EC80 solution, adding it to the 384 compound plate by multichannel pipette, and mixing well and centrifugating.
(§13) 4) IC50 test: In FLIPR, successively placing 4× EC80 plate, cell plate, FLIPR tip, running the program and reading the fluorescence value.
(§14) 4. Data Analyzing: Using Prism 5.0 to Analyze the Data and Calculate the EC50 and IC50 Values of the Compounds.

κ opioid receptor = biological target: T2, κ opioid receptor (Homo sapiens, UniProt P41145); experiment: FLIPR intracellular calcium signal test, HEK293-κ cells; format: cell-based; conditions: for EC50: EC50 (activation) test, read-out: Kapp receptor EC50; for IC50: IC50 (inhibition) test against EC80 of positive agonist, read-out: Kapp receptor IC50
T2 construct: expressed in transfected cells
T2 sequence (P41145 whole entry): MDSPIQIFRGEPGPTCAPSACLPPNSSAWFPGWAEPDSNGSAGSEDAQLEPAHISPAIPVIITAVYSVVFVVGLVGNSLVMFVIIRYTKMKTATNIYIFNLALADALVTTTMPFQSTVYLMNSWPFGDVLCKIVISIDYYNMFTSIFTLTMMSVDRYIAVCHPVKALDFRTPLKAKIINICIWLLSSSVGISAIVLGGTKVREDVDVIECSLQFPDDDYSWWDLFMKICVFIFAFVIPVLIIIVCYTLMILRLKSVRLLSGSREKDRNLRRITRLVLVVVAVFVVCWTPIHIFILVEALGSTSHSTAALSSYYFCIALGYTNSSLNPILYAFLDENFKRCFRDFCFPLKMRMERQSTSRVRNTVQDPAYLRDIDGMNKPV
Protocol: as §1, §2, §3, §4, §5, §6, §7, §8, §9, §10, §11, §12, §13, §14

μ opioid receptor = biological target: T3, μ opioid receptor (Homo sapiens, UniProt P35372); experiment: FLIPR intracellular calcium signal test, HEK293-μ cells; format: cell-based; conditions: for EC50: EC50 (activation) test, read-out: Mu receptor EC50; for IC50: IC50 (inhibition) test against EC80 of positive agonist, read-out: Mu receptor IC50
T3 construct: expressed in transfected cells
T3 sequence (P35372 whole entry): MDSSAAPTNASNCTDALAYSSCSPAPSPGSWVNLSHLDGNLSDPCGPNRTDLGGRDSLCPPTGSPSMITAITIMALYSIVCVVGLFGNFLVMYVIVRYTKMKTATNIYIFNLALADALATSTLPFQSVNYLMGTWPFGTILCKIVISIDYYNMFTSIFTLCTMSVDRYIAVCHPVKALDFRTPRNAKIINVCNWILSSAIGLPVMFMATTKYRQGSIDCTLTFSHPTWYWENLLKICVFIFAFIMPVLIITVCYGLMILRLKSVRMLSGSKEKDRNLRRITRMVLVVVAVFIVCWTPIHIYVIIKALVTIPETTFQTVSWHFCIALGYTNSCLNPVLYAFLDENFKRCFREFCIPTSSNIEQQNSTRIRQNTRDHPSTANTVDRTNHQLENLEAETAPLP
Protocol: as §1, §2, §3, §4, §5, §6, §7, §8, §9, §10, §11, §12, §13, §14

[1] = Pharmacokinetic study of intravenous injection in rats; conditions: SD, rat, plasma, 1 mg/kg
Excerpt: Through the in vivo drug metabolism test in rats, values such as Cmax, t1/2, AUC, MRT and B/P ratio of the compound in vivo were used as indicators to evaluate the metabolism of the compound in rats.
1. Pharmacokinetic Study of Intravenous Injection of Dezocine and Analogues Thereof in Rats
Mixing the test compound with an appropriate amount of physiological saline solution of 20% polyethylene glycol 400, followed by vortex and sonicate, and adjusting the pH to 4-5 with hydrochloric acid to obtain 5 mg/mL approximately clear solution, filtering the solution by microporous filtering film to be used. Selecting 6 to 9 weeks old SD rats (Shanghai Sleek Laboratory Animal Co., Ltd.) and intravenously injecting the test compound solution at a dose of 1 mg/kg. Collecting whole blood in certain time to prepare and obtain plasma. Analyzing drug concentrations by LC-MS/MS method and calculating pharmacokinetic parameters using Phoenix WinNonlin software (Pharsight, USA).

Structure (SMILES)	EC50 (δ opioid receptor) [µM]	IC50 (δ opioid receptor) [µM]	EC50 (κ opioid receptor) [µM]	IC50 (κ opioid receptor) [µM]	EC50 (μ opioid receptor) [µM]	IC50 (μ opioid receptor) [µM]	AUC(0-t) [1] [µM·h]	C0 [1] [nM]	MRT last [1] [h]	Vd [1] [L/kg]	clearance [1] [mL/min/kg]	half-life [1] [h]
CC12CCCCCC(Cc3c(-c4ccccc4)cc(O)cc31)C2N (stereo not shown) [Compound 11]	> 100	> 100	10 to 100	> 100	> 100	> 100						
CC12CCCCCC(Cc3cc(C4CC4)c(O)cc31)C2N (stereo not shown) [Compound 15]	> 100	> 100	10 to 100	> 100	> 100	> 100						
Cc1cc(O)cc2c1CC1CCCCCC2(C)C1N (stereo not shown) [Compound 1]	> 100	1 to 10	> 100	0.1 to 1	> 100	≤ 0.1						
C[C@@]12CCOCC[C@@H](Cc3ccc(O)cc31)[C@@H]2N [Compound 25]	> 100	1 to 10	> 100	1 to 10	0.1 to 1	1 to 10						
CCc1cc(O)cc2c1CC1CCCCCC2(C)C1N (stereo not shown) [Compound 9]	> 100	> 100	> 100	1 to 10	> 100	1 to 10						
CC12CCCCCC(Cc3ccc(O)cc31)C2N (stereo not shown) [Compound 2, reference compound]	> 100	> 100	> 100	1 to 10								
CC12CCCCCC(Cc3cc(C#N)c(O)cc31)C2N (stereo not shown) [Compound 19]	> 100	> 100	> 100	> 100	> 100	> 100						
C[C@@]12CCCCC[C@@H](Cc3ccc(O)cc31)[C@@H]2N (relative stereo) [Dezocine, (−)-[5R-(5α,11α,13S*)]-13-amino-5,6,7,8,9,10,11,12-octahydro-5-methyl-5,11-methan obenzocyclodecen-3-ol]							0.485	684	1.22	12.2	139	1.26
CCCC12CCCCC(Cc3c(F)cc(O)cc31)C2N (stereo not shown) [Compound 30]	> 100	10 to 100	> 100	0.1 to 1	0.1 to 1	0.1 to 1						
CC12CCCCCC(Cc3c(CO)cc(O)cc31)C2N (stereo not shown) [Compound 18]	> 100	> 100	> 100	> 100	> 100	1 to 10						
CC(C)c1cc(O)cc2c1CC1CCCCCC2(C)C1N (stereo not shown) [Compound 10]	> 100	> 100	> 100	10 to 100	> 100	10 to 100						
CC12CCCCCC(Cc3cc(Cl)c(O)cc31)C2N (stereo not shown) [Hydrochloride of Compound 16]	> 100	> 100	> 100	1 to 10	10 to 100	1 to 10						
C[C@]12CCCCC[C@H](Cc3c(Cl)cc(O)cc31)[C@H]2N [Compound 24]	> 100	1 to 10	> 100	1 to 10	10 to 100	0.1 to 1						
Cc1cc2c(cc1O)C1(C)CCCCCC(C2)C1N (stereo not shown) [Compound 14]	> 100	> 100	> 100	10 to 100	10 to 100	10 to 100						
CC12CCCCC(Cc3c(F)cc(O)cc31)C2N (single isomer, unassigned) [Compound 33]	1 to 10	1 to 10	0.1 to 1	0.1 to 1	0.1 to 1	1 to 10						
CC12CCCCCC(Cc3cc(O)c(O)cc31)C2N (stereo not shown) [Compound 5]	> 100	> 100	1 to 10	10 to 100	1 to 10	10 to 100						
C[C@]12CCOCC[C@H](Cc3ccc(O)cc31)[C@H]2N [Compound 26]	> 100	> 100	> 100	> 100	> 100	10 to 100						
CC12CCOCCC(Cc3ccc(O)cc31)C2N (stereo not shown) [Compound 8]	> 100	> 100	> 100	1 to 10	0.1 to 1	1 to 10						
COc1cc(O)cc2c1CC1CCCCCC2(C)C1N (stereo not shown) [Compound 7]	> 100	> 100	> 100	1 to 10	> 100	1 to 10						
CC12CCCCCC(Cc3cc(Cl)c(O)c(Cl)c31)C2N (stereo not shown) [Compound 20]	> 100	> 100	> 100	10 to 100	> 100	10 to 100						
CC12CCCCCC(Cc3c(O)cc(O)cc31)C2N (stereo not shown) [Compound 27]	> 100	> 100	> 100	10 to 100	> 100	1 to 10						
CC12CCCCCC(Cc3cc(F)c(O)cc31)C2N (stereo not shown) [Hydrochloride of Compound 17]	> 100	> 100	> 100	10 to 100	1 to 10	1 to 10						
CC(C)CC12CCCCC(Cc3c(F)cc(O)cc31)C2N (stereo not shown) [Compound 31]	> 100	> 100	> 100	10 to 100	10 to 100	10 to 100						
CC12CCCCC(Cc3c(F)cc(O)cc31)C2N (single isomer, unassigned) [Compound 32]	> 100	1 to 10	0.1 to 1	0.1 to 1	0.1 to 1	0.1 to 1						
CC12CCCCCC(Cc3c(Cl)cc(O)cc31)C2N (stereo not shown) [Compound 3]	> 100	1 to 10	> 100	0.1 to 1	0.1 to 1	0.1 to 1						
C[C@]12CCCCC[C@H](Cc3c(F)cc(O)cc31)[C@@H]2N [Compound 22]	> 100	10 to 100	> 100	1 to 10	1 to 10	0.1 to 1						
CC(C)c1cc2c(cc1O)C1(C)CCCCCC(C2)C1N (stereo not shown) [Compound 13]	> 100	> 100	10 to 100	10 to 100	10 to 100	10 to 100						
CC12CCCCCC(Cc3c(F)cc(O)cc31)C2N (stereo not shown) [Compound 6]	> 100	1 to 10	> 100	1 to 10	≤ 0.1	0.1 to 1						
CC12CCCCCC(Cc3ccc(O)c(F)c31)C2N (stereo not shown) [Compound 4]	> 100	> 100	> 100	1 to 10	0.1 to 1	0.1 to 1						
CC12CCCCCC(Cc3cc(Br)c(O)cc31)C2N (stereo not shown) [Compound 12]	> 100	> 100	> 100	> 100	10 to 100	10 to 100						
